Results from patent US5401490A, “Markers of tissue hypoxia” (priority 1989, dated 1995).

Test system: BALB/C mice bearing subcutaneous EMT-6 tumors
Test: Tissue distribution of radioactivity after intravenous injection
Assay type: in vivo
Details: for Tissue to Blood Ratio, Bone / Tissue to Blood Ratio, Carcass / Tissue to Blood Ratio, Heart / Tissue to Blood Ratio, Intestine / Tissue to Blood Ratio, Kidney / Tissue to Blood Ratio, Liver / Tissue to Blood Ratio, Lung / Tissue to Blood Ratio, Muscle / Tissue to Blood Ratio, Spleen / Tissue to Blood Ratio, Stomach / Tissue to Blood Ratio, Tumor: i.v.; for deiodination (increase in thyroid radioactivity): longer periods (>4 h)
Description: Tables 1 and 2 show the percent of injected IAZG and IAZA respectively per gram of wet tissue for selected tissues excised from BALB/C mice bearing EMT-6 tumors. This tumor model is known to have a high hypoxic fraction (0.33) (16). […] Hepatobiliary excretion may play a role in blood clearance as evidenced by elevated liver radioactivity and the appearance of activity in the intestine. Some oxidative or reductive metabolites of the 2-nitroimidazoles may also become bound to liver tissue, as was postulated in an in vivo study with ^14 C-MISO (6). This supposition is supported by the persistence of liver radioactivity at longer time periods. […] At 8 and 24 hours thyroid levels of IAZG are 7.2 and 30.9% of the total body activity and for IAZA they are 7.9 and 33.8% of total body activity. EXAMPLE 11 TISSUE DISTRIBUTION AND EXCRETION Tumor propagation of EMT-6 tumors in BALB/C mice was accomplished by subcutaneous injection of a cell suspension (10^5 cells in 0.1 mL) as described previously (10). Tumors reached about 10 mm in diameter (≈0.5 g) at 12 to 14 days, at which time each animal was given a bolus intravenous injection of ^125 I-labelled test drug via the tail vein (40 to 60 kBq in 0.1 mL). At set time periods the animals were asphyxiated with CO2 and exsanguinated via cardiac puncture. Tissues were dissected, weighed wet into vials and counted for ^125 I-activity. Whole-body activity was determined by summation of total activity in tissues and in residual carcass, and blood activity was determined from the blood aliquot, assuming blood to be 6.5% of the total body weight. EXAMPLE 12 Male BALB/c mice (20-25 g) were inoculated subcutaneously in the left flank with a suspension of murine EMT-6 cells (10^5 cells in 0.1 mL) (14). After 12 to 14 days, when the tumors reached the desired size (8-10 mm diameter), each mouse received a single intravenous (iv) injection of ^125 I-IAZA (59 kBq in 0.1 mL). […] Heart, lung, liver, spleen, muscle, bone, thyroid, kidney, stomach, small intestine, tail, tumor and skin were removed upon necropsy, weighed and analyzed for ^125 I using a Beckman Model 8000 gamma scintillation counter. The remaining carcass mass was also weighed and radioassayed.

## O=[N+]([O-])c1nccn1[C@@H]1O[C@H](CI)[C@@H](O)[C@@H]1O [IAZA, 1-(5-iodo-5-deoxy-β-D-arabino-furanosyl)-2-nitroimidazole]
0.25 h
  Tissue to Blood Ratio, Bone: 0.50
  Tissue to Blood Ratio, Carcass: 1.02
  Tissue to Blood Ratio, Heart: 1.78
  Tissue to Blood Ratio, Intestine: 2.06
  Tissue to Blood Ratio, Kidney: 2.49
  Tissue to Blood Ratio, Liver: 3.29
  Tissue to Blood Ratio, Lung: 1.75
  Tissue to Blood Ratio, Muscle: 1.17
  Tissue to Blood Ratio, Spleen: 1.36
  Tissue to Blood Ratio, Stomach: 1.66
  Tissue to Blood Ratio, Tumor: 0.97
0.50 h
  Tissue to Blood Ratio, Bone: 0.63
  Tissue to Blood Ratio, Carcass: 1.18
  Tissue to Blood Ratio, Heart: 1.64
  Tissue to Blood Ratio, Intestine: 2.04
  Tissue to Blood Ratio, Kidney: 2.61
  Tissue to Blood Ratio, Liver: 3.29
  Tissue to Blood Ratio, Lung: 1.74
  Tissue to Blood Ratio, Muscle: 1.28
  Tissue to Blood Ratio, Spleen: 1.38
  Tissue to Blood Ratio, Stomach: 2.19
  Tissue to Blood Ratio, Tumor: 1.60
1 h
  Tissue to Blood Ratio, Bone: 0.63
  Tissue to Blood Ratio, Carcass: 1.21
  Tissue to Blood Ratio, Heart: 1.51
  Tissue to Blood Ratio, Intestine: 2.52
  Tissue to Blood Ratio, Kidney: 2.38
  Tissue to Blood Ratio, Liver: 3.06
  Tissue to Blood Ratio, Lung: 1.63
  Tissue to Blood Ratio, Muscle: 1.19
  Tissue to Blood Ratio, Spleen: 1.35
  Tissue to Blood Ratio, Stomach: 2.15
  Tissue to Blood Ratio, Tumor: 1.46
2 h
  Tissue to Blood Ratio, Bone: 0.64
  Tissue to Blood Ratio, Carcass: 1.60
  Tissue to Blood Ratio, Heart: 1.13
  Tissue to Blood Ratio, Intestine: 1.90
  Tissue to Blood Ratio, Kidney: 1.98
  Tissue to Blood Ratio, Liver: 2.39
  Tissue to Blood Ratio, Lung: 1.26
  Tissue to Blood Ratio, Muscle: 0.75
  Tissue to Blood Ratio, Spleen: 1.02
  Tissue to Blood Ratio, Stomach: 3.62
  Tissue to Blood Ratio, Tumor: 2.80
4 h
  Tissue to Blood Ratio, Bone: 0.60
  Tissue to Blood Ratio, Carcass: 1.98
  Tissue to Blood Ratio, Heart: 0.71
  Tissue to Blood Ratio, Intestine: 1.80
  Tissue to Blood Ratio, Kidney: 1.46
  Tissue to Blood Ratio, Liver: 2.11
  Tissue to Blood Ratio, Lung: 1.00
  Tissue to Blood Ratio, Muscle: 0.53
  Tissue to Blood Ratio, Spleen: 0.78
  Tissue to Blood Ratio, Stomach: 4.02
  Tissue to Blood Ratio, Tumor: 4.62
8 h
  Tissue to Blood Ratio, Bone: 0.57
  Tissue to Blood Ratio, Carcass: 2.00
  Tissue to Blood Ratio, Heart: 1.57
  Tissue to Blood Ratio, Intestine: 5.50
  Tissue to Blood Ratio, Kidney: 2.43
  Tissue to Blood Ratio, Liver: 3.36
  Tissue to Blood Ratio, Lung: 2.36
  Tissue to Blood Ratio, Muscle: 2.57
  Tissue to Blood Ratio, Spleen: 1.29
  Tissue to Blood Ratio, Stomach: 6.21
  Tissue to Blood Ratio, Tumor: 8.71
8 hours
  thyroid levels: 7.9 % of the total body activity
24 h
  Tissue to Blood Ratio, Bone: 0.59
  Tissue to Blood Ratio, Carcass: 1.03
  Tissue to Blood Ratio, Heart: 1.14
  Tissue to Blood Ratio, Intestine: 1.11
  Tissue to Blood Ratio, Kidney: 1.41
  Tissue to Blood Ratio, Liver: 2.64
  Tissue to Blood Ratio, Lung: 1.00
  Tissue to Blood Ratio, Muscle: 0.54
  Tissue to Blood Ratio, Spleen: 0.97
  Tissue to Blood Ratio, Stomach: 1.81
  Tissue to Blood Ratio, Tumor: 5.56
24 hours
  thyroid levels: 33.8 % of the total body activity
At 8 h
  injected dose in tumor at maximum tumor to blood ratio: 1.22 % of the injected dose
  maximum tumor to blood ratio: 8.7
At 24 h
  tumor to blood ratio (text, FIG. 7): > 5.5
In words
  uptake in EMT-6 tumor tissue: taken up preferentially in EMT-6 tumor tissue
  deiodination (increase in thyroid radioactivity): evidence of deiodination at longer periods (>4 h)

## O=[N+]([O-])c1nccn1[C@@H]1O[C@H](CI)[C@H](O)[C@H](O)[C@H]1O [IAZG, 1-(6-iodo-6-deoxy-β-D-galactopyranosyl)-2-nitroimidazole]
0.25 h
  Tissue to Blood Ratio, Intestine: 3.65
  Tissue to Blood Ratio, Kidney: 8.58
  Tissue to Blood Ratio, Liver: 3.00
  Tissue to Blood Ratio, Lung: 1.51
  Tissue to Blood Ratio, Muscle: 0.72
  Tissue to Blood Ratio, Stomach: 1.79
  Tissue to Blood Ratio, Tumor: 0.95
0.50 h
  Tissue to Blood Ratio, Intestine: 3.19
  Tissue to Blood Ratio, Kidney: 8.07
  Tissue to Blood Ratio, Liver: 2.66
  Tissue to Blood Ratio, Lung: 1.31
  Tissue to Blood Ratio, Muscle: 0.63
  Tissue to Blood Ratio, Stomach: 1.92
  Tissue to Blood Ratio, Tumor: 1.31
1 h
  Tissue to Blood Ratio, Intestine: 1.42
  Tissue to Blood Ratio, Kidney: 5.56
  Tissue to Blood Ratio, Liver: 1.82
  Tissue to Blood Ratio, Lung: 0.90
  Tissue to Blood Ratio, Muscle: 0.48
  Tissue to Blood Ratio, Stomach: 1.64
  Tissue to Blood Ratio, Tumor: 1.47
2 h
  Tissue to Blood Ratio, Intestine: 1.48
  Tissue to Blood Ratio, Kidney: 5.06
  Tissue to Blood Ratio, Liver: 2.55
  Tissue to Blood Ratio, Lung: 1.13
  Tissue to Blood Ratio, Muscle: 0.62
  Tissue to Blood Ratio, Stomach: 2.61
  Tissue to Blood Ratio, Tumor: 1.45
4 h
  Tissue to Blood Ratio, Intestine: 1.04
  Tissue to Blood Ratio, Kidney: 4.00
  Tissue to Blood Ratio, Liver: 1.51
  Tissue to Blood Ratio, Lung: 1.16
  Tissue to Blood Ratio, Muscle: 0.49
  Tissue to Blood Ratio, Stomach: 1.85
  Tissue to Blood Ratio, Tumor: 1.56
8 h
  Tissue to Blood Ratio, Intestine: 1.05
  Tissue to Blood Ratio, Kidney: 2.47
  Tissue to Blood Ratio, Liver: 1.24
  Tissue to Blood Ratio, Lung: 0.98
  Tissue to Blood Ratio, Muscle: 0.36
  Tissue to Blood Ratio, Stomach: 2.50
  Tissue to Blood Ratio, Tumor: 1.34
8 hours
  thyroid levels: 7.2 % of the total body activity
24 h
  Tissue to Blood Ratio, Intestine: 0.83
  Tissue to Blood Ratio, Kidney: 1.52
  Tissue to Blood Ratio, Liver: 1.32
  Tissue to Blood Ratio, Lung: 1.26
  Tissue to Blood Ratio, Muscle: 0.38
  Tissue to Blood Ratio, Stomach: 0.87
  Tissue to Blood Ratio, Tumor: 1.41
24 hours
  thyroid levels: 30.9 % of the total body activity
At 4 h
  injected dose in tumor at maximal tumor to blood ratio: 0.23 % of the injected dose
  maximal tumor to blood ratio: 1.56
  deiodination (increase in thyroid radioactivity): evidence of deiodination at longer periods (>4 h)
